Consider 22 compounds from PubChem BioAssay AID192 (DTP/NCI, 2004).

The assay relates to BDF1 mice, B16 melanoma ip, median survival T/C. In words: NCI In Vivo Anticancer Drug Screen. Data for tumor model B16 Melanoma (intraperitoneal) in B6D2F1 (BDF1) mice. The note with it: endpoint: median survival time, higher = longer survival. The procedure: The antitumor activity of compounds was measured in mice bearing transplantable tumors. Survival or tumor size were measured and the results are expressed as the measurement made in the treated group (T) divided by the measurement made in the vehicle treated control group (C). The tumor model used in this assay is B16 Melanoma (intraperitoneal) in B6D2F1 (BDF1) mice

The mark [1] stands for this setting: dose: 100.0 mg/kg/injection, schedule: Q01DX009 (ip), vehicle: saline with Tween-80.
[2] abbreviates: dose: 400.0 mg/kg/injection, schedule: Q01DX009 (ip), vehicle: saline with Tween-80.
[3] abbreviates: dose: 100.0 mg/kg/injection, schedule: Q01DX009 (ip), vehicle: saline.
Where [4] appears, read: dose: 200.0 mg/kg/injection, schedule: Q01DX009 (ip), vehicle: saline.
[5] abbreviates: dose: 400.0 mg/kg/injection, schedule: Q01DX009 (ip), vehicle: saline.
Setting [6] is: dose: 12.5 mg/kg/injection, schedule: Q01DX009 (ip), vehicle: Klucel (hydroxypropylcellulose) (HPC).
[7] abbreviates: dose: 25.0 mg/kg/injection, schedule: Q01DX009 (ip), vehicle: Klucel (hydroxypropylcellulose) (HPC).
Setting [8] is: dose: 50.0 mg/kg/injection, schedule: Q01DX009 (ip), vehicle: Klucel (hydroxypropylcellulose) (HPC).
The mark [9] stands for this setting: dose: 100.0 mg/kg/injection, schedule: Q01DX009 (ip), vehicle: Klucel (hydroxypropylcellulose) (HPC).
Where [10] appears, read: dose: 200.0 mg/kg/injection, schedule: Q01DX009 (ip), vehicle: Klucel (hydroxypropylcellulose) (HPC).
[11] abbreviates: dose: 400.0 mg/kg/injection, schedule: Q01DX009 (ip), vehicle: Klucel (hydroxypropylcellulose) (HPC).
Where [12] appears, read: dose: 6.25 mg/kg/injection, schedule: Q01DX009 (ip), vehicle: Klucel (hydroxypropylcellulose) (HPC).
Where [13] appears, read: dose: 25.0 mg/kg/injection, schedule: Q01DX009 (ip), vehicle: saline with Tween-80.
Where [14] appears, read: dose: 50.0 mg/kg/injection, schedule: Q01DX009 (ip), vehicle: saline with Tween-80.
[15] abbreviates: dose: 200.0 mg/kg/injection, schedule: Q01DX009 (ip), vehicle: saline with Tween-80.

Structures are written as SMILES. Values joined by “and” are separate entries in the source; they are usually repeats but may differ in a detail not shown here. Equal values may be shown once. Inconclusive results and toxic doses are left out.

For the compound `CC(=O)NC1c2cc(Cl)ccc2-c2c(Cl)cc(Cl)cc21` (configuration not stated), the T/C by setting is: under setting [1], 100 % of control; under setting [2], 95 % of control; (dose: 800.0 mg/kg/injection, schedule: Q01DX009 (ip), vehicle: saline with Tween-80) 86 % of control.

As for `O=C1C=CC(=O)N1Cc1ccco1`, the T/C reads like this: (dose: 65.0 mg/kg/injection, schedule: Q01DX009 (ip), vehicle: saline) 108 % of control; under setting [3], 103 % of control and 117 % of control; (dose: 150.0 mg/kg/injection, schedule: Q01DX009 (ip), vehicle: saline) 114 % of control and 117 % of control; under setting [4], 113 % of control; under setting [5], 113 % of control.

For the compound `c1ccc(OCCC[P+](c2ccccc2)(c2ccccc2)c2ccccc2)cc1`, the T/C was 107 % of control (dose: 5.0 mg/kg/injection, schedule: Q01DX009 (ip), vehicle: saline); 105 % of control (dose: 10.0 mg/kg/injection, schedule: Q01DX009 (ip), vehicle: saline); 95 % of control (dose: 20.0 mg/kg/injection, schedule: Q01DX009 (ip), vehicle: saline); 97 % of control (dose: 40.0 mg/kg/injection, schedule: Q01DX009 (ip), vehicle: saline).

On to `CCCCC(C)(C(=O)OCC)C(=O)OCC`, for which the T/C was 108 % of control under setting [6]; 101 % of control under setting [7]; 102 % of control under setting [8]; 101 % of control under setting [9]; 102 % of control under setting [10]; 94 % of control under setting [11].

With `CC[n+]1c(C)sc2cc3c(cc21)OCO3`, the T/C runs as follows: (dose: 25.0 mg/kg/injection, schedule: Q01DX009 (ip), vehicle: carboxymethylcellulose (CMC)) 108 % of control; (dose: 50.0 mg/kg/injection, schedule: Q01DX009 (ip), vehicle: carboxymethylcellulose (CMC)) 106 % of control.

Regarding `Cc1cccc(C)c1NC(=O)Nc1ccc(Cl)c(Cl)c1`, the T/C was 95 % of control (dose: 25.0 mg/kg/injection, schedule: Q01DX009 (ip), vehicle: other); 99 % of control (dose: 50.0 mg/kg/injection, schedule: Q01DX009 (ip), vehicle: other); 87 % of control and 103 % of control (dose: 100.0 mg/kg/injection, schedule: Q01DX009 (ip), vehicle: other).

As to `COc1ccccc1N1CCN(CCCC(=O)c2ccc(F)cc2)CC1`, the T/C is 93 % of control (dose: 0.09 mg/kg/injection, schedule: Q04DX003 (ip), vehicle: Klucel (hydroxypropylcellulose) (HPC)); 91 % of control (dose: 0.19 mg/kg/injection, schedule: Q04DX003 (ip), vehicle: Klucel (hydroxypropylcellulose) (HPC)); 96 % of control (dose: 0.39 mg/kg/injection, schedule: Q04DX003 (ip), vehicle: Klucel (hydroxypropylcellulose) (HPC)); 87 % of control (dose: 0.78 mg/kg/injection, schedule: Q04DX003 (ip), vehicle: Klucel (hydroxypropylcellulose) (HPC)); 90 % of control (dose: 1.56 mg/kg/injection, schedule: Q04DX003 (ip), vehicle: Klucel (hydroxypropylcellulose) (HPC)); 92 % of control under setting [12]. Further, the T/C under setting [6] is 92 % of control, the T/C under setting [7] was 100 % of control and the T/C under setting [8] is 105 % of control.

For `CCCCCCCCCCCCSCCNC(=O)CCl`, the T/C was 112 % of control under setting [9], 100 % of control under setting [10] and 96 % of control under setting [11].

For `CCCCOC(OCCCC)C(C)=O`, the T/C was 96 % of control under setting [9], 93 % of control under setting [10] and 93 % of control under setting [11].

For the compound `CC(=O)Nc1ccc(/C=N/NC(N)=S)cc1`, the T/C was 102 % of control under setting [7]; 108 % of control under setting [13]; 100 % of control under setting [8]; 105 % of control under setting [14]; 102 % of control under setting [9]; 100 % of control under setting [1]. Besides, the T/C was 105 % of control under setting [10], 98 % of control under setting [15], 100 % of control under setting [11] and 95 % of control under setting [2].

Take `CCCCC/C(C)=N\Nc1ccccn1`: the T/C is 106 % of control (dose: 12.5 mg/kg/injection, schedule: Q01DX009 (ip), vehicle: saline sonified); 100 % of control (dose: 25.0 mg/kg/injection, schedule: Q01DX009 (ip), vehicle: saline sonified); 102 % of control (dose: 50.0 mg/kg/injection, schedule: Q01DX009 (ip), vehicle: saline sonified); 100 % of control (dose: 100.0 mg/kg/injection, schedule: Q01DX009 (ip), vehicle: saline sonified).

`Cc1cc2nc3ccc(N)cc3oc-2cc1=[N+](C)C`: the T/C under setting [12] is 105 % of control; the T/C (dose: 6.25 mg/kg/injection, schedule: Q01DX009 (ip), vehicle: saline) was 123 % of control; the T/C under setting [6] was 110 % of control; the T/C (dose: 12.5 mg/kg/injection, schedule: Q01DX009 (ip), vehicle: saline) is 119 % of control; the T/C under setting [7] was 117 % of control.

For the compound `Cc1ccc(NC(=O)Nc2cccc(C(F)(F)F)c2)cc1NC(=O)Nc1cccc(C(F)(F)F)c1`, the T/C is, setting by setting: under setting [13], 103 % of control; under setting [14], 91 % of control; under setting [1], 96 % of control.

With `C(/C=C/C=C/N1CCCCC1)=[N+]1CCCCC1`, the T/C is 96 % of control (dose: 0.13 mg/kg/injection, schedule: Q01DX009 (ip), vehicle: saline); 107 % of control (dose: 0.25 mg/kg/injection, schedule: Q01DX009 (ip), vehicle: saline); 101 % of control (dose: 0.5 mg/kg/injection, schedule: Q01DX009 (ip), vehicle: saline); 105 % of control (dose: 1.0 mg/kg/injection, schedule: Q01DX009 (ip), vehicle: saline).

As to `S=c1nc[nH]c2nc[nH]c12.[Ag]`, where the note is “dose: 300.0 mg/kg/injection, schedule: Q01DX009 (ip), vehicle: carboxymethylcellulose (CMC)”, the T/C was 118 % of control.

In the case of `COC(=O)C(CCCN)NC(=O)c1ccccc1` (configuration not stated), the T/C runs as follows: (dose: 50.0 mg/kg/injection, schedule: Q01DX009 (ip), vehicle: saline) 95 % of control; under setting [3], 102 % of control; under setting [4], 107 % of control; under setting [5], 97 % of control.

On to `COc1cc2c(cc1OC)C1CCN3C(=O)CCC3N1CC2` (configuration not stated), for which the T/C runs as follows: under setting [1], 94 % of control; under setting [15], 91 % of control; under setting [2], 105 % of control.

As to `Cc1cc(=O)[nH]c(N/N=C/c2ccccc2O)n1`, the T/C under setting [7] is 93 % of control, the T/C under setting [8] is 87 % of control, the T/C under setting [9] is 87 % of control and the T/C under setting [10] was 87 % of control.

On to `CSCCC(N)C(=O)O` (configuration not stated), for which the T/C is 103 % of control and 106 % of control (dose: 40.0 mg/kg/injection, schedule: Q01DX009 (ip), vehicle: saline with Tween-80); 102 % of control and 108 % of control (dose: 80.0 mg/kg/injection, schedule: Q01DX009 (ip), vehicle: saline with Tween-80); 113 % of control and 118 % of control (dose: 160.0 mg/kg/injection, schedule: Q01DX009 (ip), vehicle: saline with Tween-80); 94 % of control and 100 % of control (dose: 320.0 mg/kg/injection, schedule: Q01DX009 (ip), vehicle: saline with Tween-80).

As to `O=CC(NC(=O)N(CCF)N=O)C(O)C(O)C(O)CO` (configuration not stated), the T/C runs as follows: (dose: 3.12 mg/kg/injection, schedule: Q01DX001 (ip), vehicle: saline) 100 % of control; (dose: 25.0 mg/kg/injection, schedule: Q01DX001 (ip), vehicle: saline) 171 % of control; (dose: 50.0 mg/kg/injection, schedule: Q01DX001 (ip), vehicle: saline) 189 % of control; (dose: 100.0 mg/kg/injection, schedule: Q01DX001 (ip), vehicle: saline) 231 % of control.

For the compound `C=CCc1ccc(C)c(C)c1O`, the T/C (dose: 100.0 mg/kg/injection, schedule: Q04DX003 (sc), vehicle: olive oil, sesame oil, peanut oil) is 91 % of control.

As for `C(=C\c1cnc2ccccc2n1)/c1ccc2c(c1)OCO2`, the T/C by setting is: (dose: 75.0 mg/kg/injection, schedule: Q01DX009 (ip), vehicle: Klucel (hydroxypropylcellulose) (HPC)) 105 % of control; (dose: 150.0 mg/kg/injection, schedule: Q01DX009 (ip), vehicle: Klucel (hydroxypropylcellulose) (HPC)) 94 % of control.
